For 27 compounds, IC90 results are on record in patent publication US20230011869A1 (Hoffmann-La Roche Inc., priority 2018, published 2023).

SMILES strings stand for the structures. Counter-ions that a name gives are not always drawn.

In one test the test system is Acinetobacter baumannii ATCC17978. The experiment in a line: Antimicrobial susceptibility testing: 90% growth inhibitory concentration (IC90) determination, Iso-Sensitest broth. It counts as cell-based. Conditions: 90% growth inhibitory concentration, Acinetobacter baumannii ATCC17978, Iso-Sensitest broth, OD 600 nm over 16 h; read-out: ATCC17978 IC90. The method, boiled down:
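A. baumannii ATCC17978 grown in Iso-Sensitest broth across 10 compound concentrations at 35±2 °C.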
Take `Cc1cc(Nc2nccn3c(-c4ccc(OC(F)F)c(F)c4)cnc23)ccc1C(=O)N1CCC(N)CC1` [Example 362, (4-aminopiperidin-1-yl)-[4-[[3-[4-(difluoromethoxy)-3-fluorophenyl]imidazo[1,2-a]pyrazin-8-yl]amino]-2-methylphenyl]methanone; hy-drochloride]: the IC90 stood at 490 nM.

Consider `COc1ccc(-c2cnc3c(Nc4ccc(C(=O)N5CCN(CCO)CC5)c(C)c4)nccn23)cc1` [Example 371, [4-(2-hydroxyethyl)piperazin-1-yl]-[4-[[3-(4-methoxyphenyl)imidazo[1,2-a]pyrazin-8-yl]amino]-2-methylphenyl]methanone], for which the IC90 worked out at 1200 nM.

In the case of `COc1ccc(-c2cnc3c(Nc4ccc(C(=O)N5CCCN(C)CC5)c(C)c4)nccn23)cc1` [Example 383, [4-[[3-(4-methoxyphenyl)imidazo[1,2-a]pyrazin-8-yl]amino]-2-methylphenyl]-(4-methyl-1,4-diazepan-1-yl)methanone], the IC90 amounted to 4300 nM.

Regarding `COc1ccc(-c2cnc3c(Nc4ccc(C(=O)N5CCC(N(C)C)C5)c(C)c4)nccn23)cc1` (stereo not drawn) [Example 384, [3-(dimethylamino)pyrrolidin-1-yl]-[4-[[3-(4-methoxyphenyl)imidazo[1,2-a]pyrazin-8-yl]amino]-2-methylphenyl]methanone], the IC90 worked out at 5200 nM.

Turning to `Cc1cc(Nc2nccn3c(-c4ccc(OCC#CCO)c(F)c4)cnc23)ccc1C(=O)N1CCC(CN)CC1` [Example 387, [4-(aminomethyl)piperidin-1-yl]-[4-[[3-[3-fluoro-4-(4-hydroxybut-2-ynoxy)phenyl]imidazo[1,2-a]pyrazin-8-yl]amino]-2-methylphenyl]methanone; for-mic acid], the IC90 was found to be 240 nM.

Staying with this test, now noted: Acinetobacter baumannii, ATCC17978, 16 h, read-out: ATCC17978 IC90, 90% growth inhibitory concentration, Acinetobacter baumannii ATCC17978, Iso-Sensitest broth, OD 600 nm over 16 h.
On to `Cc1cc(Nc2nccn3c(-c4ccc(OC(F)F)cc4)cnc23)ccc1C(=O)N1CCC2(CC1)CNC2` [Example 360, 2,7-diazaspiro[3.5]nonan-7-yl-[4-[[3-[4-(difluoromethoxy)phenyl]imi-dazo[1,2-a]pyrazin-8-yl]amino]-2-methylphenyl]methanone; hy-drochloride], for which the IC90 is 420 nM.

As to `Cc1cc(Nc2nccn3c(-c4ccc(OC(F)F)cc4)cnc23)ccc1C(=O)N1CCC(N)CC1` [Example 361, (4-aminopiperidin-1-yl)-[4-[[3-[4-(difluoromethoxy)phenyl]imi-dazo[1,2-a]pyrazin-8-yl]amino]-2-methylphenyl]methanone; hy-drochloride], the IC90 came out at 450 nM.

Turning to `CCc1cc(Nc2nccn3c(-c4ccc(OC(F)F)cc4)cnc23)ccc1C(=O)N1CCC(CN)CC1` [Example 363, [4-(aminomethyl)piperidin-1-yl]-[4-[[3-[4-(difluoromethoxy)phenyl]imi-dazo[1,2-a]pyrazin-8-yl]amino]-2-ethylphenyl]methanone; hydro-chloride], the IC90 stood at 520 nM.

Turning to `Cc1cc(Nc2nccn3c(-c4ccc(OC(F)F)cc4)cnc23)ccc1C(=O)N1CCOC(CN)C1` (stereo not drawn) [Example 364, [2-(aminomethyl)morpholin-4-yl]-[4-[[3-[4-(difluoromethoxy)phenyl]imi-dazo[1,2-a]pyrazin-8-yl]amino]-2-methylphenyl]methanone; hy-drochloride], the IC90 amounted to 530 nM.

On to `Cc1cc(Nc2nccn3c(-c4ccc(OC(F)F)cc4)cnc23)ccc1C(=O)N1CCC2(COC2)C1` [Example 365, [4-[[3-[4-(difluoromethoxy)phenyl]imi-dazo[1,2-a]pyrazin-8-yl]amino]-2-methylphenyl]-(2-oxa-7-azaspiro[3.4]octan-7-yl)methanone], for which the IC90 was determined as 550 nM.

Turning to `Cc1cc(Nc2nccn3c(-c4ccc(OC(F)F)cc4)cnc23)ccc1C(=O)N1CCC(N2CCOCC2)CC1` [Example 366, [4-[[3-[4-(difluoromethxoy)phenyl]imi-dazo[1,2-a]pyrazin-8-yl]amino]-2-methylphenyl]-(4-morpholin-4-ylpiperidin-1-yl)methanone], the IC90 stood at 640 nM.

On to `CCN1CCN(C2CCN(C(=O)c3ccc(Nc4nccn5c(-c6ccc(OC(F)F)cc6)cnc45)cc3C)CC2)CC1` [Example 367, [4-[[3-[4-(difluoromethoxy)phenyl]imi-dazo[1,2-a]pyrazin-8-yl]amino]-2-methylphenyl]-[4-(4-ethylpiperazin-1-yl)piperidin-1-yl]methanone], for which the IC90 is 690 nM.

In the case of `Cc1cc(Nc2nccn3c(-c4ccc(OC(F)F)cc4)cnc23)ccc1C(=O)N1CCCC(N)C1` (stereo not drawn) [Example 368, (3-aminopiperidin-1-yl)-[4-[[3-[4-(difluoromethoxy)phenyl]imi-dazo[1,2-a]pyrazin-8-yl]amino]-2-methylphenyl]methanone; hy-drochloride], the IC90 is 810 nM.

For `CCN(CC)C(=O)N1CCN(C(=O)c2ccc(Nc3nccn4c(-c5ccc(OC(F)F)cc5)cnc34)cc2C)CC1` [Example 369, 4-[4-[[3-[4-(difluoromethoxy)phenyl]imi-dazo[1,2-a]pyrazin-8-yl]amino]-2-methylbenzoyl]-N,N-diethylpiperazine-1-carboxamide], the IC90 is 890 nM.

For the compound `Cc1cc(Nc2nccn3c(-c4ccc(OC(F)F)cc4)cnc23)ccc1C(=O)N1CCC2(CCOCC2)C1` [Example 370, [4-[[3-[4-(difluoromethoxy)phenyl]imi-dazo[1,2-a]pyrazin-8-yl]amino]-2-methylphenyl]-(8-oxa-2-azaspiro[4.5]decan-2-yl)methanone], the IC90 is 1100 nM.

Turning to `Cc1cc(Nc2nccn3c(-c4ccc(OC(F)F)cc4)cnc23)ccc1C(=O)N1CCN(CC(=O)N(C)C)CC1` [Example 372, 2-[4-[4-[[3-[4-(difluoromethoxy)phenyl]imi-dazo[1,2-a]pyrazin-8-yl]amino]-2-methylbenzoyl]piperazin-1-yl]-N,N-dimethylacetamide], the IC90 turned out to be 1200 nM.

Turning to `CNC1CCN(C(=O)c2ccc(Nc3nccn4c(-c5ccc(OC(F)F)cc5)cnc34)cc2C)CC1` [Example 374, [4-[[3-[4-(difluoromethoxy)phenyl]imi-dazo[1,2-a]pyrazin-8-yl]amino]-2-methylphenyl]-[4-(methylamino)piperidin-1-yl]methanone; hydrochloride], the IC90 amounted to 1700 nM.

Take `Cc1cc(Nc2nccn3c(-c4ccc(OC(F)F)cc4)cnc23)ccc1C(=O)N1CCC(C(N)=O)(N2CCN(C)CC2)CC1` [Example 375, 1-[4-[[3-[4-(difluoromethoxy)phenyl]imi-dazo[1,2-a]pyrazin-8-yl]amino]-2-methylbenzoyl]-4-(4-methylpiperazin-1-yl)piperidine-4-carboxamide]: the IC90 came out at 2000 nM.

On to `Cc1cc(Nc2nccn3c(-c4ccc(OC(F)F)cc4)cnc23)ccc1C(=O)N1CCC2(CCCNC2)CC1` [Example 376, 2,9-diazaspiro[5.5]undecan-9-yl-[4-[[3-[4-(difluromethoxy)phenyl]imi-dazo[1,2-a]pyrazin-8-yl]amino]-2-methylphenyl]methanone; hy-drochloride], for which the IC90 amounted to 2000 nM.

For the compound `Cc1cc(Nc2nccn3c(-c4ccc(OC(F)F)cc4)cnc23)ccc1C(=O)N1CCN(CC(=O)N2CCCC2)CC1` [Example 377, 2-[4-[4-[[3-[4-(difluoromethoxy)phenyl]imi-dazo[1,2-a]pyrazin-8-yl]amino]-2-methylbenzoyl]piperazin-1-yl]-1-pyrrolidin-1-ylethanone], the IC90 is 2300 nM.

As to `Cc1cc(Nc2nccn3c(-c4ccc(OC(F)F)cc4)cnc23)ccc1C(=O)N1CCOCC1CN` (stereo not drawn) [Example 378, [3-(aminomethyl)morpholin-4-yl]-[4-[[3-[4-(difluoromethoxy)phenyl]imi-dazo[1,2-a]pyrazin-8-yl]amino]-2-methylphenyl]methanone; hy-drochloride], the IC90 amounted to 2500 nM.

Regarding `Cc1cc(Nc2nccn3c(-c4ccc(OC(F)F)cc4)cnc23)ccc1C(=O)N1CCOC2(CCNCC2)C1` [Example 379, [4-[[3-[4-(difluoromethoxy)phenyl]imi-dazo[1,2-a]pyrazin-8-yl]amino]-2-methylphenyl]-(1-oxa-4,9-diazaspiro[5.5]undecan-4-yl)methanone; hydrochloride], the IC90 turned out to be 2800 nM.

With `Cc1cnn(CC2CCN(C(=O)c3ccc(Nc4nccn5c(-c6ccc(OC(F)F)cc6)cnc45)cc3C)CC2)c1` [Example 380, [4-[[3-[4-(difluoromethoxy)phenyl]imi-dazo[1,2-a]pyrazin-8-yl]amino]-2-methylphenyl]-[4-[(4-methylpyrazol-1-yl)methyl]piperidin-1-yl]methanone], the IC90 amounted to 2800 nM.

`Cc1cc(Nc2nccn3c(-c4ccc(OC(F)F)cc4)cnc23)ccc1C(=O)N1CCC2(CCNCC2)C1` [Example 381, 2,8-diazaspiro[4.5]decan-2-yl-[4-[[3-[4-(difluoromethoxy)phenyl]imi-dazo[1,2-a]pyrazin-8-yl]amino]-2-methylphenyl]methanone; hy-drochloride]: the IC90 was 2900 nM.

Regarding `Cc1cc(Nc2nccn3c(-c4ccc(OC(F)F)cc4)cnc23)ccc1C(=O)N1CCC(CC(=O)O)CC1` [Example 382, 2-[1-[4-[[3-[4-(difluoromethoxy)phenyl]imi-dazo[1,2-a]pyrazin-8-yl]amino]-2-methylbenzoyl]piperidin-4-yl]acetic acid], the IC90 was determined as 3600 nM.

Regarding `CN1CCN(C(=O)c2ccc(Nc3nccn4c(-c5ccc(OC(F)F)cc5)cnc34)cc2C(F)(F)F)CC1` [Example 385, [4-[[3-[4-(difluoromethoxy)phenyl]imi-dazo[1,2-a]pyrazin-8-yl]amino]-2-(trifluoromethyl)phenyl]-(4-methylpiperazin-1-yl)methanone], the IC90 is 7400 nM.

Turning to `CCc1cc(Nc2nccn3c(-c4ccc(OC)c(F)c4)cnc23)ccc1C(=O)N1CCC(CN)CC1` [Example 386, [4-(aminomethyl)piperidin-1-yl]-[2-ethyl-4-[[3-(3-fluoro-4-methoxyphenyl)imidazo[1,2-a]pyrazin-8-yl]amino]phenyl]methanone; formic acid], the IC90 amounted to 180 nM.
